Among the data in ChEMBL document CHEMBL4387712, “Development of the binding molecules for the RNA higher-order structures based on the guanine-recognition by the G-clamp” (Bioorg Med Chem Lett, 2019) are Activity, Kd and fold change (FC) values, retold here.

Active and inactive are the calls of the source. The calls are words filed in the database; no cut-off is given here.

The Kd is the equilibrium constant for the complex coming apart. Read a high Kd as lower affinity.

The nature of test [1]: Binding affinity to sh(-CUG-) RNA (unknown origin) at 10 nM by fluorescence spectra analysis.
Test [2] can be described thus: Binding affinity to sh(-CUA-) RNA (unknown origin) at 10 nM by fluorescence spectra analysis.
A short description of test [3]: Binding affinity to ssRNA-5 mer (unknown origin) at 10 nM by fluorescence spectra analysis.
Test [4] is described as follows: Binding affinity to sh(-GUA-) RNA (unknown origin) at 10 nM by fluorescence spectra analysis.
The nature of test [5]: Binding affinity to sh(-GUG-) RNA (unknown origin) at 10 nM by fluorescence spectra analysis.
Test [6] in a line: Binding affinity to sh(-CUG-) RNA (unknown origin) by fluorescence titration method.
The nature of test [7]: Binding affinity to sh(-GUA-) RNA (unknown origin) by fluorescence titration method.
Test [8] is described as follows: Binding affinity to G0 RNA (unknown origin) at 10 nM by fluorescence spectra analysis.
Test [9] in a line: Binding affinity to stem-loop RNA (unknown origin) at 10 nM by fluorescence spectra analysis.
The nature of test [10]: Binding affinity to stem-duplex RNA (unknown origin) at 10 nM by fluorescence spectra analysis.
A short description of test [11]: Binding affinity to sh(-GUG-) RNA (unknown origin) assessed as increase in fluorescence at 10 nM by fluorescence spectra analysis relative to control.
Test [12] in a line: Binding affinity to sh(-CUA-) RNA (unknown origin) assessed as increase in fluorescence at 10 nM by fluorescence spectra analysis.
Test [13] is described as follows: Binding affinity to ssRNA-5 mer (unknown origin) assessed as increase in fluorescence at 10 nM by fluorescence spectra analysis.
The nature of test [14]: Binding affinity to sh(-CUG-) RNA (unknown origin) assessed as increase in fluorescence at 10 nM by fluorescence spectra analysis relative to control.
Test [15] in a line: Binding affinity to sh(-GUA-) RNA (unknown origin) assessed as increase in fluorescence at 10 nM by fluorescence spectra analysis relative to control.
Test [16] in a line: Binding affinity to sh(-GUG-) RNA (unknown origin) by fluorescence titration method.
Test [17] can be described thus: Binding affinity to sh(-GUG-) RNA (unknown origin) assessed as hypochromic effect at 10 uM by UV-vis spectral analysis.
A short description of test [18]: Binding affinity to sh(-CUA-) RNA (unknown origin) assessed as change in UV spectrum at 10 uM by UV-vis spectral analysis.
Test [19] in a line: Binding affinity to sh(-GUG-) RNA (unknown origin) at 10 uM by circular dichroism. (In general: Circular dichroism is widely used to follow secondary structure.)
Test [20] can be described thus: Binding affinity to sh(-CUA-) RNA (unknown origin) at 10 uM by circular dichroism.
A short description of test [21]: Binding affinity to wild-type full length pre-miRNA-17 (unknown origin) assessed as increase in fluorescence intensity at 10 nM by fluorescence spectra analysis.
A short description of test [22]: Binding affinity to hairpin G2 RNA mutant (unknown origin) assessed as increase in fluorescence intensity at 10 nM by fluorescence spectra analysis.
Test [23] can be described thus: Binding affinity to mismatch G2 RNA mutant (unknown origin) assessed as increase in fluorescence intensity at 10 nM by fluorescence spectra analysis.
Test [24] is described as follows: Binding affinity to overhang G2 RNA mutant (unknown origin) assessed as increase in fluorescence intensity at 10 nM by fluorescence spectra analysis.
Test [25] is described as follows: Binding affinity to sh(-GUG-) RNA (unknown origin) assessed as bathochromic effect at 10 uM by UV-vis spectral analysis.

Turning to `CN(C)CCCNC(=O)Cn1cc2c(nc1=O)Nc1c(OCCN)cccc1O2`, the outcome in [1] and in test [5] was Active. The result in test [2], in [3] and in test [4] was inactive. Also, the Kd in test [6] amounted to 155 nM; in test [7] it was 202 nM.

Take `CN(CCCNC(=O)Cn1cc2c(nc1=O)Nc1c(OCCN)cccc1O2)CCCNC(=O)Cn1cc2c(nc1=O)Nc1c(OCCN)cccc1O2`: the outcome in test [8], in [9], in test [10], in [11], in test [17] and in test [19] was Active. Moreover, the outcome in test [21], in test [22], in [23], in test [24] and in test [25] was Active. Also, the fold change (FC) in test [11] came out at 7; in test [14], 4.1; in [15], 2.6. In addition, the result in test [12], in test [13], in test [18] and in test [20] was inactive. Also, the Kd in test [16] amounted to 9 nM; in [6], 27 nM; in test [7] it was 103 nM.
